Calls of active or inactive are those of the source. No cut-off for these calls is given here.
System: Mus musculus
Experiment: Antifibrotic activity in C57BL/6 mouse model of bleomycin-induced lung fibrosis assessed as reduction in collagen level in lung at 60 mg/kg, po pre-treated 1 hr to 1 day before bleomycin injection and measured after 14 to 28 days by hydroxyproline assay
Assay type: functional, organism-based

`NCc1cc(=O)c2cc(Br)ccc2[nH]1` was tested, and the Activity was “Active”.

From ChEMBL document CHEMBL4418306, “Quinolinone lysyl oxidase-like 2 inhibitors and uses thereof” (2017)
